Values of other authors in US8153594B2, “Tacrolimus standard and methods of using same” (Siemens Healthcare Diagnostics Inc., priority 2006, dated 2012).

C=CC[C@@H]1/C=C(\C)C[C@H](C)C[C@H](OC)[C@H]2O[C@@](O)(C(=O)C(=O)N3CCCC[C@H]3C(=O)O[C@H](/C(C)=C/[C@@H]3CC[C@@H](O)[C@H](OC)C3)[C@H](C)[C@@H](O)CC1=O)[C@H](C)C[C@@H]2OC [tacrolimus, Tacrolimus]
Solubility in water: insoluble in water
